The results in this text go back to US10189865B1, “Gold(I) complexes, pharmaceutical compositions thereof, and methods of treating proliferative disorders” (King Fahd University of Petroleum and Minerals, priority 2018, dated 2019).

Holding throughout (format): cell-based
Assay [1] has as its system HCT15 (human colon cancer) cell line. As to the kind of experiment: MTT in vitro cytotoxicity assay, HCT15. The conditions noted are these: 24 h incubation with complex, three independent experiments, read-out: IC50 against HCT15. Here is the method: (§1) The cells were seeded at 3×10^3 cells/well in 100 μL of Dulbecco's Modified Eagle's Medium (DMEM) containing 10% fetal bovine serum (FBS) in a 96-well tissue culture plate and incubated for 72 h at 37° C., 5% CO2 and 90% relative humidity in a CO2 incubator. After incubation, 100 μL of 100, 50, 25 and 12.5 μM solutions of cisplatin and gold(I) complexes prepared in Dulbecco's Modified Eagle's Medium (DMEM) was each added to the cells and the cultures were incubated for 24 h. The medium in the wells was casted off, and 100 μL of DMEM containing MTT (0.5 mg/mL) was added to the wells, which were subsequently incubated in the CO2 incubator at 37° C. in the dark for 4 h. After incubation, purple-colored formazan produced by the cells appeared as dark crystals in the bottom of the wells. The culture medium was carefully removed from each well to prevent disruption of the monolayer, and 100 μL of dimethyl sulfoxide (DMSO) was added in each well. The solution in the wells was thoroughly mixed to dissolve the formazan crystals which produced a purple solution. The absorbance of the 96 well-plates was measured at 570 nm with Labsystems Multiskan EX ELISA reader against a reagent blank. The experimental results were calculated as micro-molar concentration for 50% cell growth inhibition (IC50) of each drug. The MTT assay was carried out in three independent experiments, each in triplicate. […]

Assay [2] has as its system A549 (human lung carcinoma) cell line. As to the kind of experiment: MTT in vitro cytotoxicity assay, A549. The conditions noted are these: 24 h incubation with complex, three independent experiments, read-out: IC50 against A549. Here is the method:
as §1

Assay [3] has as its system MCF7 (human breast adenocarcinoma) cell line. As to the kind of experiment: MTT in vitro cytotoxicity assay, MCF7. The conditions noted are these: 24 h incubation with complex, three independent experiments, read-out: IC50 against MCF7. The procedure:
as §1

Regarding `N.N.[Cl][Pt][Cl]` [Cisplatin, cisplatin, reference compound], the IC50 – broadly, the concentration needed to halve the response being measured – in assay [1] is 33 ± 2 µM.
For the compound [Au(IPr)(ImSe]PF6 [Complex (II)], the IC50 in assay [1] stood at 33 ± 1 µM; in assay [2], 47 ± 1 µM; in assay [3], 43 ± 2 µM.
